We go through one molecule from PMC3130785, “Small Compound 6-O-Angeloylplenolin Induces Mitotic Arrest and Exhibits Therapeutic Potentials in Multiple Myeloma” (PLoS ONE, 2011).

Assay type in all cases: cell-based, human
For one test, the system named is Mad2 bound Cdc20. The test is described as follows: Immunoprecipitation and Western blotting. The note with it: U266 and MM.1S cells; 24 h. As for the experimental part:
(§1) Cell pellets were lysed in RIPA buffer containing 50 mM Tris pH 8.0, 150 mM NaCl, 0.1% SDS, 0.5% deoxycholate, 1% NP-40, 1 mM DTT, 1 mM NaF, 1 mM sodium vanadate, and protease inhibitors cocktail (Sigma). For immunoprecipitations, cells were lysed on ice for 15 minutes in RIPA buffer. Lysates were centrifuged. The supernatant was incubated with indicated antibodies overnight, after which protein A/G Plus beads (Santa Cruz Biotechnology) were added and incubated for 3 h. The beads were washed 4 times in RIPA buffer. Then the beads were resuspended in 1× sample buffer and boiled for 3 min. Protein extracts were quantitated and loaded on 8% to 12% sodium dodecyl sulfate polyacrylamide gel, electrophoresed, and transferred to a nitrocellulose membrane (Whatman). The membrane was incubated with primary antibody, washed, and incubated with horseradish peroxidase (HRP)–conjugated secondary antibody (Pierce). Detection was performed by using a chemiluminescent western detection kit (Cell Signaling). […]
(§2) Figure 3 6-OAP accumulates cyclin B1 which is required for mitotic arrest. […] After co-incubation with 6-OAP for 18 h, the cells were then harvested and detected by Leica DMI 400B microscope (D), or analyzed by flow cytometry for the cell cycle distribution (E). To evaluate cell growth, the cells were treated with 6-OAP for indicated time points and analyzed by trypan blue exclusion assay (F). […]
For orientation: In western blotting, separated proteins are transferred to a membrane and probed.

For test [1], the system named is ubiquitinated cyclin B1 (Ub-cyclin B1). The test is described as follows: Immunoprecipitation and Western blotting. The note with it: U266 and MM.1S; 24 h. As for the experimental part: as §1, §2
A further test deals with pIκBα and pP65. As to the kind of experiment: Western blotting, TNF-α stimulation. As to conditions: MM.1S; 6-OAP 5 µM 12 h; TNF-α 5 ng/ml. As for the experimental part: as §1
Figure 5 6-OAP overcomes the protective effects of IL-6, IGF-I and BMSCs on MM cells. […] Cell proliferation was assessed by MTT assay. […] Cell proliferation was assessed by MTT assay. *p<.01,** p<.05. […]

In the case of `CC=C(C)C(=O)OC1C2C(CC(C)C3C=CC(=O)C31C)OC(=O)C2C` (stereo not drawn) [6-OAP, 6-O-angeloylplenolin], the Mad2-Cdc20 binding entry with Mad2 bound Cdc20 is “enhanced the binding affinity”. In addition, the “ubiquitinated cyclin B1” value in test [1] is listed as “markedly decreased”. In addition, the “TNF-α-induced pIκBα and pP65” value in the test on pIκBα and pP65 is “inhibited phosphorylation”.
